Patent US10668067B2, “Pyridine sulfonamides” (AMGEN INC., priority 2016, dated 2020)

What follows are molecules tested against human Nav1.7 (Homo sapiens (Human), UniProt Q15858) (assay: Nav 1.7 In Vitro PX Assay (PatchXpress whole cell voltage clamp)). Details: in-vitro Nav 1.7 PX data.
Format: cell-based
Description: HEK 293 cells stably transfected with human Nav1.7 were recorded in whole cell voltage clamp mode with the PatchXpress automated electrophysiology system (Molecular Devices, LLC, Sunnyvale, Calif.). Compound effects were measured on a partially inactivated state of the sodium channel. Cells were clamped to a holding potential yielding 20 to 50% inactivation. To elicit sodium current, channels were activated by pulsing to −10 mV for 20 msec. This voltage protocol was repeated at a rate of 0.1 Hz throughout the experiment. A single concentration of test compound was applied to cells for a duration of 3 minutes. Peak sodium current was measured at the end of the compound addition period to determine percent inhibition. Three to five cells were tested per concentration, and IC50 curves were fitted to percent inhibition as a function of concentration.

human Nav1.7, sequence (Q15858 whole entry): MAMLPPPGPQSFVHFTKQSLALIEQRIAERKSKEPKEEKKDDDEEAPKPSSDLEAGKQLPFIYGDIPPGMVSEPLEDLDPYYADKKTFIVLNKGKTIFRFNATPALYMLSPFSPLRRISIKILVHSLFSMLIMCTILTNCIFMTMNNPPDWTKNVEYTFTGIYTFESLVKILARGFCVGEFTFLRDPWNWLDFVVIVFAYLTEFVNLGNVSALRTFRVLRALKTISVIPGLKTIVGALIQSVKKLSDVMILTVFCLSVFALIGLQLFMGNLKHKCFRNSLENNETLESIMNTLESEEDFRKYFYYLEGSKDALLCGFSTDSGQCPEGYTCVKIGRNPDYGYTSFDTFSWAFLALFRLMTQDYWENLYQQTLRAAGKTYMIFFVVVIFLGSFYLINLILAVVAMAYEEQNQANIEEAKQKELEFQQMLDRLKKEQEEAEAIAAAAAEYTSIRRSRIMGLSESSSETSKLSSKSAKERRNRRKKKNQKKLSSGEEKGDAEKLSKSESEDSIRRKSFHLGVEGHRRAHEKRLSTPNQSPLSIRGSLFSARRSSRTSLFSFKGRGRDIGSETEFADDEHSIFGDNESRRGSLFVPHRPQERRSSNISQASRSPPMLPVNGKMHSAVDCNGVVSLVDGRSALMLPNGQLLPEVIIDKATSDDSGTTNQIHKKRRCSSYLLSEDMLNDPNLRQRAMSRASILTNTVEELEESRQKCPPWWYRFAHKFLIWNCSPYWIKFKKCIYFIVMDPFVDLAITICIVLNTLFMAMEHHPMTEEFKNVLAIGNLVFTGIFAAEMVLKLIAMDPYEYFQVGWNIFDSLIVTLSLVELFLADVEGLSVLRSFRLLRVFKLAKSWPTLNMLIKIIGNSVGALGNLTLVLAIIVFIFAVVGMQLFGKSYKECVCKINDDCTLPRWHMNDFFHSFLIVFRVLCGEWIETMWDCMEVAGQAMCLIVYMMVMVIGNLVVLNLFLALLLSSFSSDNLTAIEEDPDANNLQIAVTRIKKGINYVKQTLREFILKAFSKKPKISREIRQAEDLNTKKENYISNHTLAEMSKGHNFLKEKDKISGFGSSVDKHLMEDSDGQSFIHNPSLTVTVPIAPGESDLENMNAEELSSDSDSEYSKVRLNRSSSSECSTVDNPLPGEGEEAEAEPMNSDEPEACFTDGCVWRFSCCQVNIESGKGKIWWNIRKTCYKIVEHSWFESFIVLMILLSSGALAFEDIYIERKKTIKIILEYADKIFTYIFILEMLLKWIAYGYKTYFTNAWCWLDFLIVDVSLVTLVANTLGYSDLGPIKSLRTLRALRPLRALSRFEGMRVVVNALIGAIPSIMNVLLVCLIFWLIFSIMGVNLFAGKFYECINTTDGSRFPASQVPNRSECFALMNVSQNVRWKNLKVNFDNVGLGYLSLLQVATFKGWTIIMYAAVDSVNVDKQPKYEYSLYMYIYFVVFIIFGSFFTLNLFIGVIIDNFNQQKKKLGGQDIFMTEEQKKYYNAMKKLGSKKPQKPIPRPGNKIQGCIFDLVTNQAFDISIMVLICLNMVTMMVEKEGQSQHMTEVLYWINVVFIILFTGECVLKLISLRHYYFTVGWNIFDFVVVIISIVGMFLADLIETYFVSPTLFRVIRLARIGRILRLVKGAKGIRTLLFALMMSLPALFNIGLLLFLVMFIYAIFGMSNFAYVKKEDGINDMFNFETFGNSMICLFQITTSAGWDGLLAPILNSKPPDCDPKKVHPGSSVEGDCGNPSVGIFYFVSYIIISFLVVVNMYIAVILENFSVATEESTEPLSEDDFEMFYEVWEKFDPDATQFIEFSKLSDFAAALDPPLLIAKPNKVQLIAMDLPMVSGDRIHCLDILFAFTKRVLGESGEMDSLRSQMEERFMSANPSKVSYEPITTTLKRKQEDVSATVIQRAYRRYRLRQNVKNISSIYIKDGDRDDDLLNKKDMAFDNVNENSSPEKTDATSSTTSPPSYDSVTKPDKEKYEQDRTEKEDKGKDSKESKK

IC50 [nM] | SMILES
52 | CNC(=O)N(c1ccc(S(=O)(=O)Nc2ccon2)cn1)c1cc(Cl)c(-c2ccc(Cl)c(C#N)c2)cc1OC [Example 1-54, 6-((2,4′-dichloro-3′-cyano-5-methoxy-4-biphenylyl)(methylcarbamoyl)amino)-N-3-isoxazolyl-3-pyridinesulfonamide]
17 | CNC(=O)N(c1ccc(S(=O)(=O)Nc2ccon2)cn1)c1cc(Cl)c(-c2cc(C(F)(F)F)ccc2F)cc1OC [Example 1-55, 6-((2-chloro-2′-fluoro-5-methoxy-5′-(trifluoromethyl)-4-biphenylyl)(methylcarbamoyl)amino)-N-3-isoxazolyl-3-pyridinesulfonamide]
19 | CNC(=O)N(c1ccc(S(=O)(=O)Nc2ccon2)cn1)c1cc(Cl)c(-c2cc(OC(F)(F)F)ccc2OC)cc1OC [Example 1-56, 6-((2-chloro-2′,5-dimethoxy-5′-(trifluoromethoxy)-4-biphenylyl)(methylcarbamoyl)amino)-N-3-isoxazolyl-3-pyridinesulfonamide]
24 | CNC(=O)N(c1ccc(S(=O)(=O)Nc2ccon2)cn1)c1cc(Cl)c(-c2ccc(F)c(OCC(F)(F)F)c2)cc1OC [Example 1-57, 6-((2-chloro-4′-fluoro-5-methoxy-3′-(2,2,2-trifluoroethoxy)-4-biphenylyl)(methylcarbamoyl)amino)-N-3-isoxazolyl-3-pyridinesulfonamide]
3020 | CNC(=O)N(c1ccc(S(=O)(=O)Nc2ccon2)cn1)c1cc(Cl)c(C2CC2)cc1OC [Example 1-59, 6-((5-chloro-4-cyclopropyl-2-methoxyphenyl)(methylcarbamoyl)amino)-N-3-isoxazolyl-3-pyridinesulfonamide]
19 | CNC(=O)N(c1ccc(S(=O)(=O)Nc2ccon2)cn1)c1cc(Cl)c(-c2ccc(F)c(Cl)c2)cc1OC [Example 1-60, 6-((2,3′-dichloro-4′-fluoro-5-methoxy-4-biphenylyl)(methylcarbamoyl)amino)-N-3-isoxazolyl-3-pyridinesulfonamide]
20 | CNC(=O)N(c1ccc(S(=O)(=O)Nc2ccon2)cn1)c1cc(Cl)c(-c2ccc(C)c(Cl)c2)cc1OC [Example 1-61, 6-((2,3′-dichloro-5-methoxy-4′-methyl-4-biphenylyl)(methylcarbamoyl)amino)-N-3-isoxazolyl-3-pyridinesulfonamide]
64 | CNC(=O)N(c1ccc(S(=O)(=O)Nc2ccon2)cn1)c1cc(Cl)c(-c2ccc(C)c(F)c2)cc1OC [Example 1-62, 6-((2-chloro-3′-fluoro-5-methoxy-4′-methyl-4-biphenylyl)(methylcarbamoyl)amino)-N-3-isoxazolyl-3-pyridinesulfonamide]
28 | CNC(=O)N(c1ccc(S(=O)(=O)Nc2ccon2)cn1)c1cc(Cl)c(-c2ccc(Cl)c(F)c2)cc1OC [Example 1-63, 6-((2,4′-dichloro-3′-fluoro-5-methoxy-4-biphenylyl)(methylcarbamoyl)amino)-N-3-isoxazolyl-3-pyridinesulfonamide]
78 | CNC(=O)N(c1ccc(S(=O)(=O)Nc2ccon2)cn1)c1cc(Cl)c(-c2cc(OC)cc(OC)c2)cc1OC [Example 1-64, 6-((2-chloro-3′,5,5′-trimethoxy-4-biphenylyl)(methylcarbamoyl)amino)-N-3-isoxazolyl-3-pyridinesulfonamide]
54 | CNC(=O)N(c1ccc(S(=O)(=O)Nc2ccon2)cn1)c1cc(Cl)c(-c2ccc(F)c(F)c2)cc1OC [Example 1-65, 6-((2-chloro-3′,4′-difluoro-5-methoxy-4-biphenylyl)(methylcarbamoyl)amino)-N-3-isoxazolyl-3-pyridinesulfonamide]
59 | CNC(=O)N(c1ccc(S(=O)(=O)Nc2ccon2)cn1)c1cc(Cl)c(-c2cc(OC)c(F)c(OC)c2)cc1OC [Example 1-66, 6-((2-chloro-4′-fluoro-3′,5,5′-trimethoxy-4-biphenylyl)(methylcarbamoyl)amino)-N-3-isoxazolyl-3-pyridinesulfonamide]
34 | CCOc1cc(-c2cc(OC)c(N(C(=O)NC)c3ccc(S(=O)(=O)Nc4ccon4)cn3)cc2Cl)ccc1F [Example 1-67, 6-((2-chloro-3′-ethoxy-4′-fluoro-5-methoxy-4-biphenylyl)(methylcarbamoyl)amino)-N-3-isoxazolyl-3-pyridinesulfonamide]
23 | CNC(=O)N(c1ccc(S(=O)(=O)Nc2ccon2)cn1)c1cc(Cl)c(-c2cc(F)c(F)c(OC)c2)cc1OC [Example 1-68, 6-((2-chloro-3′,4′-difluoro-5,5′-dimethoxy-4-biphenylyl)(methylcarbamoyl)amino)-N-3-isoxazolyl-3-pyridinesulfonamide]
6 | CNC(=O)N(c1ccc(S(=O)(=O)Nc2ccon2)cn1)c1cc(Cl)c(-c2ccc(F)c(OC(F)(F)F)c2)cc1OC [Example 1-69, 6-((2-chloro-4′-fluoro-5-methoxy-3′-(trifluoromethoxy)-4-biphenylyl)(methylcarbamoyl)amino)-N-3-isoxazolyl-3-pyridinesulfonamide]
52 | CNC(=O)N(c1ccc(S(=O)(=O)Nc2ccon2)cn1)c1cc(Cl)c(-c2ccc(Cl)cc2)cc1OC [Example 1-70, 6-((2,4′-dichloro-5-methoxy-4-biphenylyl)(methylcarbamoyl)amino)-N-3-isoxazolyl-3-pyridinesulfonamide]
398 | CNC(=O)N(c1ccc(S(=O)(=O)Nc2ccon2)cn1)c1ccc(-c2ccc(F)c(C)c2)cc1OC [Example 1-71, 6-((4′-fluoro-3-methoxy-3′-methyl-4-biphenylyl)(methylcarbamoyl)amino)-N-3-isoxazolyl-3-pyridinesulfonamide]
101 | CNC(=O)N(c1ccc(S(=O)(=O)Nc2ccon2)cn1)c1ccc(-c2cc(Cl)cc(OC)c2)cc1OC [Example 1-72, 6-((3′-chloro-3,5′-dimethoxy-4-biphenylyl)(methylcarbamoyl)amino)-N-3-isoxazolyl-3-pyridinesulfonamide]
65 | CNC(=O)N(c1ccc(S(=O)(=O)Nc2ccon2)cn1)c1ccc(-c2ccc(Cl)c(C)c2)cc1OC [Example 1-73, 6-((4′-chloro-3-methoxy-3′-methyl-4-biphenylyl)(methylcarbamoyl)amino)-N-3-isoxazolyl-3-pyridinesulfonamide]
84 | CNC(=O)N(c1ccc(S(=O)(=O)Nc2ccon2)cn1)c1ccc(-c2cc(F)cc(Cl)c2)cc1OC [Example 1-74, 6-((3′-chloro-5′-fluoro-3-methoxy-4-biphenylyl)(methylcarbamoyl)amino)-N-3-isoxazolyl-3-pyridinesulfonamide]
106 | CNC(=O)N(c1ccc(S(=O)(=O)Nc2ncccn2)cn1)c1cc(Cl)c(-c2ccc(Cl)c(C#N)c2)cc1OC [Example 1-75, 6-((2,4′-dichloro-3′-cyano-5-methoxy-4-biphenylyl)(methylcarbamoyl)amino)-N-2-pyrimidinyl-3-pyridinesulfonamide]
116 | CNC(=O)N(c1ccc(S(=O)(=O)Nc2ncccn2)cn1)c1cc(Cl)c(-c2ccc(F)c(F)c2)cc1OC [Example 1-76, 6-((2-chloro-3′,4′-difluoro-5-methoxy-4-biphenylyl)(methylcarbamoyl)amino)-N-2-pyrimidinyl-3-pyridinesulfonamide]
70 | CNC(=O)N(c1ccc(S(=O)(=O)Nc2ncccn2)cn1)c1cc(Cl)c(-c2ccc(Cl)c(OC)c2)cc1OC [Example 1-77, 6-((2,4′-dichloro-3′,5-dimethoxy-4-biphenylyl)(methylcarbamoyl)amino)-N-2-pyrimidinyl-3-pyridinesulfonamide]
123 | CNC(=O)N(c1ccc(S(=O)(=O)Nc2ncccn2)cn1)c1cc(Cl)c(-c2cc(Cl)cc(C#N)c2)cc1OC [Example 1-78, 6-((2,3′-dichloro-5′-cyano-5-methoxy-4-biphenylyl)(methylcarbamoyl)amino)-N-2-pyrimidinyl-3-pyridinesulfonamide]
166 | CNC(=O)N(c1ccc(S(=O)(=O)Nc2ncccn2)cn1)c1cc(Cl)c(-c2cc(OC)cc(OC)c2)cc1OC [Example 1-79, 6-((2-chloro-3′,5,5′-trimethoxy-4-biphenylyl)(methylcarbamoyl)amino)-N-2-pyrimidinyl-3-pyridinesulfonamide]
39 | CNC(=O)N(c1ccc(S(=O)(=O)Nc2ncccn2)cn1)c1cc(F)c(-c2ccc(Cl)c(C)c2)cc1OC [Example 1-80, 6-((4′-chloro-2-fluoro-5-methoxy-3′-methyl-4-biphenylyl)(methylcarbamoyl)amino)-N-2-pyrimidinyl-3-pyridinesulfonamide]
143 | CNC(=O)N(c1ccc(S(=O)(=O)Nc2ncccn2)cn1)c1cc(F)c(-c2cccc(C(F)(F)F)c2)cc1OC [Example 1-81, 6-((2-fluoro-5-methoxy-3′-(trifluoromethyl)-4-biphenylyl)(methylcarbamoyl)amino)-N-2-pyrimidinyl-3-pyridinesulfonamide]
18 | CNC(=O)N(c1ccc(S(=O)(=O)Nc2ncccn2)cn1)c1cc(F)c(-c2cc(OC)cc(C(F)(F)F)c2)cc1OC [Example 1-82, 6-((2-fluoro-3′,5-dimethoxy-5′-(trifluoromethyl)-4-biphenylyl)(methylcarbamoyl)amino)-N-2-pyrimidinyl-3-pyridinesulfonamide]
32 | CNC(=O)N(c1ccc(S(=O)(=O)Nc2ncccn2)cn1)c1cc(F)c(-c2ccc(Cl)c(Cl)c2)cc1OC [Example 1-83, 6-((3′,4′-dichloro-2-fluoro-5-methoxy-4-biphenylyl)(methylcarbamoyl)amino)-N-2-pyrimidinyl-3-pyridinesulfonamide]
62 | CNC(=O)N(c1ccc(S(=O)(=O)Nc2ncccn2)cn1)c1cc(F)c(-c2cccc(OC(F)(F)F)c2)cc1OC [Example 1-84, 6-((2-fluoro-5-methoxy-3′-(trifluoromethoxy)-4-biphenylyl)(methylcarbamoyl)amino)-N-2-pyrimidinyl-3-pyridinesulfonamide]
